The source made the active and inactive calls. Cut-off read from the data, not from the text of the source, for most assays here: actives have a measured Kd and inactives only a lower limit.
How the values were obtained:
Activin receptor type-1B = target: T1, Activin receptor type-1B (Homo sapiens, UniProt P36896)
T1 sequence (P36896 whole entry): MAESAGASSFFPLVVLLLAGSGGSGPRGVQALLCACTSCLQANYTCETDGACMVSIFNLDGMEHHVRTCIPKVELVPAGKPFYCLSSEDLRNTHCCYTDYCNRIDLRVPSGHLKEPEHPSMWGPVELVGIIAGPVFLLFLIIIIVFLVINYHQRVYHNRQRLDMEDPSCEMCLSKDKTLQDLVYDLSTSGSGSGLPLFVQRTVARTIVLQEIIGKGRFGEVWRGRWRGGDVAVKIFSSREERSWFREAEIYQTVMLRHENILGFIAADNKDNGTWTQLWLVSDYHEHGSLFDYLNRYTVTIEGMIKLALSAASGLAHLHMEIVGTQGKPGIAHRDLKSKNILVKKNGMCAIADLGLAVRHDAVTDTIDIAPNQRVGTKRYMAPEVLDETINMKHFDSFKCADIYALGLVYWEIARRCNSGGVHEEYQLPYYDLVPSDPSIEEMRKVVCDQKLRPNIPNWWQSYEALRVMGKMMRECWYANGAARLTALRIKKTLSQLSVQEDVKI

[1] = target: T2, ATP-dependent RNA helicase DDX42 (Homo sapiens, UniProt Q86XP3)
T2 sequence (Q86XP3 whole entry): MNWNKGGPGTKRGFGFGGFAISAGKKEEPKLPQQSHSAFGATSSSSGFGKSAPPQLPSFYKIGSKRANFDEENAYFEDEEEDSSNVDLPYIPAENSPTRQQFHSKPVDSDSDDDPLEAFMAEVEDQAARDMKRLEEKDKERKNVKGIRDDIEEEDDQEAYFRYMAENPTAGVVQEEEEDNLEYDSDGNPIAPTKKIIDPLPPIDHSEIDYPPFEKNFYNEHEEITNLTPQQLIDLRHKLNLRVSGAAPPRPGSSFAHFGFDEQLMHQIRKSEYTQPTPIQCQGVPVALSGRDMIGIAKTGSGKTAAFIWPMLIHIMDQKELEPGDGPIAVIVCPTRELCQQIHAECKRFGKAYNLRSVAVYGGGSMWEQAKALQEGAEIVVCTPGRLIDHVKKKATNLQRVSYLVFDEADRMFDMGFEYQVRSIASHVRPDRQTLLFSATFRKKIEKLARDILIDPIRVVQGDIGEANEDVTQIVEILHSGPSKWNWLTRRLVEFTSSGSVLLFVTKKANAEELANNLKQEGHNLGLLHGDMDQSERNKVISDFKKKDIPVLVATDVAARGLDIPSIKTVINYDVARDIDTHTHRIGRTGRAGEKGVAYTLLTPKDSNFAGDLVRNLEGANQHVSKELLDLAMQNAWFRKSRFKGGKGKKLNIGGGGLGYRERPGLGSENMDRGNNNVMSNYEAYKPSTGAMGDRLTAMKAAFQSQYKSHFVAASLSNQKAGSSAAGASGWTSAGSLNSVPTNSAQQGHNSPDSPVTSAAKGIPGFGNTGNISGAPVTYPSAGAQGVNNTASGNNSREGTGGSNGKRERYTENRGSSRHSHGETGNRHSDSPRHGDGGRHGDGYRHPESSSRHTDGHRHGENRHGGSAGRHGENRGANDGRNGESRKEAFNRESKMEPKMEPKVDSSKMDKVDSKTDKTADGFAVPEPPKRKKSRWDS

[2] = target: T3, Dual specificity mitogen-activated protein kinase kinase 5 (Homo sapiens, UniProt Q13163)
T3 sequence (Q13163 whole entry): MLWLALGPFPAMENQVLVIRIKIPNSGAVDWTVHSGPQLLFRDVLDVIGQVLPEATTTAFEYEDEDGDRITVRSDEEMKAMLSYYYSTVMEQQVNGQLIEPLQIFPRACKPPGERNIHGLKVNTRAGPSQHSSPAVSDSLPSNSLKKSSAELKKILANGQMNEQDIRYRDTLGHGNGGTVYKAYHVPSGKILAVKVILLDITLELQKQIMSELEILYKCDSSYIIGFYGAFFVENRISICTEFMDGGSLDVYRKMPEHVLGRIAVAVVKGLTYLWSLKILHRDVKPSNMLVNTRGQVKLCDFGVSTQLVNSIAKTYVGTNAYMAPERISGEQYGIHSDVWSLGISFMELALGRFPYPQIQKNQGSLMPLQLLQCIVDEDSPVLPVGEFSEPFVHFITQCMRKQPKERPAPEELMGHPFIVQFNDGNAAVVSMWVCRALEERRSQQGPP

[3] = target: T4, Serine/threonine-protein kinase ULK1 (Homo sapiens, UniProt O75385)
T4 sequence (O75385 whole entry): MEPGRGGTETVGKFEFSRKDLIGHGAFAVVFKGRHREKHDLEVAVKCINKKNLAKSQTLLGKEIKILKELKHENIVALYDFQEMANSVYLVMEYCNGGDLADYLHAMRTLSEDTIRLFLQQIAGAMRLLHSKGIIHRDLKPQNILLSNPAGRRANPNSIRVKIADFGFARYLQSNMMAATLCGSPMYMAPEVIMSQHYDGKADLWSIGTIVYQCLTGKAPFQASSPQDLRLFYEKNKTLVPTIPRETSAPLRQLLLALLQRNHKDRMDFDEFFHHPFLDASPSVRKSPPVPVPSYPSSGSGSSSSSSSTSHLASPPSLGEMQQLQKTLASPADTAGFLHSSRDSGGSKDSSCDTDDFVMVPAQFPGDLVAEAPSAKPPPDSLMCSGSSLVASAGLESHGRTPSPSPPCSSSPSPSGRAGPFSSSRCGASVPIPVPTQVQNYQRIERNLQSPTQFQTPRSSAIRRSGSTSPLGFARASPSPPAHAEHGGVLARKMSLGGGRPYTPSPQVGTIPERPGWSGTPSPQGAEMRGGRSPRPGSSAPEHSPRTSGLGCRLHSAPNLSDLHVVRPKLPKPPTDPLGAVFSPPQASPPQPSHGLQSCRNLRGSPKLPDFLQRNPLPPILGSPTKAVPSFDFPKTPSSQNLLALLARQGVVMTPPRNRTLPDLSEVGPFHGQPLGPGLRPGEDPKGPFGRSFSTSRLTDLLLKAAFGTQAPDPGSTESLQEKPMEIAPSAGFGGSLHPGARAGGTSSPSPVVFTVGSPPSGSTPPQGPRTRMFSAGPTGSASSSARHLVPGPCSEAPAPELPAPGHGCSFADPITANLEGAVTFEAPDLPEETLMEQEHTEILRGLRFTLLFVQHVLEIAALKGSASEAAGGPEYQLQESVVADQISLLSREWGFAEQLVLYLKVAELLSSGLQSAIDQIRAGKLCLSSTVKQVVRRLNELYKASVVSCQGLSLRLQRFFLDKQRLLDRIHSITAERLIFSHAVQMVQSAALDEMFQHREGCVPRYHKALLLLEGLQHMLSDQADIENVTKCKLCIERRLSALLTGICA
Note: in the data inactive means no Kd found up to 30 µM.

Structure (SMILES)	Kd (Activin receptor type-1B)	Kd [1]	Kd [2]	Kd [3]
O=c1sn(-c2cccc3ccccc23)c(=O)n1Cc1ccccc1 [TIDEGLUSIB]	> 30 µM (inactive)	> 30 µM (inactive)	> 30 µM (inactive)	> 30 µM (inactive)
Cn1cc(-c2ccc3nnc(C(F)(F)c4ccc5ncccc5c4)n3n2)cn1 [JNJ-38877605]	> 30 µM (inactive)	> 30 µM (inactive)	> 30 µM (inactive)	> 30 µM (inactive)
Cn1ncc(Cl)c1-c1cc(C(=O)N[C@H](CN)Cc2cccc(F)c2)sc1Cl [AFURESERTIB]	> 30 µM (inactive)	> 30 µM (inactive)	> 30 µM (inactive)	
CNS(=O)(=O)Nc1nccc(Cc2c(C)c3ccc(Oc4ncccn4)cc3oc2=O)c1F [AVUTOMETINIB]	> 30 µM (inactive)	> 30 µM (inactive)	2 µM (active)	> 30 µM (inactive)
CN(C)C(=O)c1cc2cnc(Nc3ccc(N4CCNCC4)cn3)nc2n1C1CCCC1 [RIBOCICLIB]	> 30 µM (inactive)	> 30 µM (inactive)	> 30 µM (inactive)	> 30 µM (inactive)
CCc1cnn2c(NCc3ccc[n+]([O-])c3)cc(N3CCCC[C@H]3CCO)nc12 [DINACICLIB]	> 30 µM (inactive)	> 30 µM (inactive)	> 30 µM (inactive)	> 30 µM (inactive)
COc1ccc(-c2ccc3c(N4CCOC[C@@H]4C)nc(N4CCOC[C@@H]4C)nc3n2)cc1CO [AZD-8055]	> 30 µM (inactive)	> 30 µM (inactive)	> 30 µM (inactive)	> 30 µM (inactive)
COc1cc2nccc(Oc3ccc(NC(=O)Nc4cc(C)on4)c(Cl)c3)c2cc1OC [TIVOZANIB]	> 30 µM (inactive)	> 30 µM (inactive)	> 30 µM (inactive)	> 30 µM (inactive)
C[C@@H](Nc1cc(F)cc(F)c1)c1cc(C(=O)N(C)C)cc2c(=O)cc(N3CCOCC3)oc12 [AZD-8186]	> 30 µM (inactive)		> 30 µM (inactive)	> 30 µM (inactive)
CNC(=O)CN1CCC(Oc2cc3c(Nc4cccc(Cl)c4F)ncnc3cc2OC)CC1 [SAPITINIB]	> 30 µM (inactive)	> 30 µM (inactive)	> 30 µM (inactive)	> 30 µM (inactive)
CCCS(=O)(=O)Nc1ccc(F)c(C(=O)c2c[nH]c3ncc(-c4ccc(Cl)cc4)cc23)c1F [VEMURAFENIB]	> 30 µM (inactive)	> 30 µM (inactive)	0.734 µM (active)	> 30 µM (inactive)
CNC(=O)c1ccc(C)c(-n2c(C)cc(OCc3ccc(F)cc3F)c(Br)c2=O)c1 [PH-797804]	> 30 µM (inactive)	> 30 µM (inactive)	> 30 µM (inactive)	
COC(=O)[C@@]1(O)C[C@H]2O[C@]1(C)n1c3ccccc3c3c4c(c5c6ccccc6n2c5c31)C(=O)NC4 [K-252A]	15.3 µM (active)	> 30 µM (inactive)	2.03 µM (active)	> 30 µM (inactive)
C[C@@H](c1ccc2nccn2c1)n1nnc2ncc(-c3cnn(C)c3)nc21 [SAVOLITINIB]		> 30 µM (inactive)	> 30 µM (inactive)	> 30 µM (inactive)
CN1CCC(COc2cnc(-c3cccc(Cn4nc(-c5cccc(C#N)c5)ccc4=O)c3)nc2)CC1 [TEPOTINIB]	> 30 µM (inactive)	> 30 µM (inactive)	> 30 µM (inactive)	> 30 µM (inactive)
COc1cc(N2CCC(N3CCN(C)CC3)CC2)ccc1Nc1ncnc(Nc2ccccc2S(=O)(=O)C(C)C)n1 [ASP-3026]	> 30 µM (inactive)	> 30 µM (inactive)	> 30 µM (inactive)	> 30 µM (inactive)
CNC(=O)c1ccc(-c2cnc3ncc(Cc4ccc5ncccc5c4)n3n2)cc1F [CAPMATINIB]	> 30 µM (inactive)	> 30 µM (inactive)	> 30 µM (inactive)	> 30 µM (inactive)
CCn1c(=O)c(-c2cc[nH]n2)cc2c(C)nc(N)nc21 [VOXTALISIB]	> 30 µM (inactive)	> 30 µM (inactive)	> 30 µM (inactive)	> 30 µM (inactive)
COc1cc(OC)c(/C=C/S(=O)(=O)Cc2ccc(OC)c(NCC(=O)O)c2)c(OC)c1 [RIGOSERTIB]	> 30 µM (inactive)		> 30 µM (inactive)	> 30 µM (inactive)
C=CC(=O)N1CCC(Oc2cc3c(Nc4ccc(Cl)c(Cl)c4F)ncnc3cc2OC)CC1 [POZIOTINIB]	> 30 µM (inactive)		> 30 µM (inactive)	> 30 µM (inactive)
O=C1NC(=O)/C(=C/c2ccc3nccc(-c4ccncc4)c3c2)S1 [GSK-1059615]	> 30 µM (inactive)		> 30 µM (inactive)	> 30 µM (inactive)
Cc1cc(Nc2cc(N3CCN(C)CC3)nc(/C=C/c3ccccc3)n2)n[nH]1 [ENMD-2076]	> 30 µM (inactive)	> 30 µM (inactive)	> 30 µM (inactive)	
Cc1ccc(S(=O)(=O)Nc2nc3ccccc3nc2Nc2ccc3nsnc3c2)cc1	> 30 µM (inactive)		> 30 µM (inactive)	> 30 µM (inactive)
CCn1c(-c2nonc2N)nc2c(C#CC(C)(C)O)ncc(OC[C@H]3CCCNC3)c21 [GSK-690693]		> 30 µM (inactive)		
Nc1nc(N)c2nc(-c3cccc(O)c3)c(-c3cccc(O)c3)nc2n1 [TG100-115]		> 30 µM (inactive)		
C[C@@H]1CN(Cc2ccc(F)cc2)[C@@H](C)CN1C(=O)c1cc2c(C(=O)C(=O)N(C)C)cn(C)c2cc1Cl [TALMAPIMOD]	> 30 µM (inactive)		> 30 µM (inactive)	> 30 µM (inactive)
COc1cc(CCc2cc(NC(=O)c3ccc(N4C[C@@H](C)N[C@@H](C)C4)cc3)n[nH]2)cc(OC)c1 [AZD-4547]	> 30 µM (inactive)		> 30 µM (inactive)	> 30 µM (inactive)
